Measured values as given in the NIST ThermoML archive (doi:10.1021/je700740e).
Numbers after ± are expanded uncertainties.

Details: Liquid; for mass density: Vibrating tube method; for viscosity: Vibrating wire viscometry

Q: With `Cc1ccccc1` [toluene] as the molecule, how does the mass density (298.15 K, 100 kPa) read?
A: 862.5 ± 1.7 kg/m3

Q: And the viscosity (298.15 K, 100 kPa)?
A: 0.555 ± 0.012 mPa·s

Q: What about the mass density (298.15 K, 2300 kPa) of the same molecule?
A: 864.389 ± 1.7 kg/m3

Q: What about the viscosity (298.15 K, 2300 kPa) of the same molecule?
A: 0.569 ± 0.013 mPa·s

Q: And the mass density (298.15 K, 4400 kPa)?
A: 865.888 ± 1.7 kg/m3

Q: And the viscosity (298.15 K, 4400 kPa)?
A: 0.58 ± 0.013 mPa·s

Q: What about the mass density (298.15 K, 7430 kPa) of the same molecule?
A: 868.038 ± 1.7 kg/m3

Q: What about the viscosity (298.15 K, 7430 kPa) of the same molecule?
A: 0.593 ± 0.013 mPa·s

Q: What about the mass density (298.15 K, 10400 kPa) of the same molecule?
A: 870.54 ± 1.8 kg/m3

Q: What about the viscosity (298.15 K, 10400 kPa) of the same molecule?
A: 0.597 ± 0.013 mPa·s

Q: And the mass density (298.15 K, 12470 kPa)?
A: 871.736 ± 1.8 kg/m3

Q: And the viscosity (298.15 K, 12470 kPa)?
A: 0.613 ± 0.014 mPa·s

Q: And the mass density (298.15 K, 14490 kPa)?
A: 873.496 ± 1.8 kg/m3

Q: And the viscosity (298.15 K, 14490 kPa)?
A: 0.617 ± 0.014 mPa·s

Q: What about the mass density (323.15 K, 120 kPa) of the same molecule?
A: 840.467 ± 1.7 kg/m3

Q: And the viscosity (323.15 K, 120 kPa)?
A: 0.425 ± 0.01 mPa·s

Q: And the mass density (323.15 K, 3340 kPa)?
A: 843.459 ± 1.7 kg/m3

Q: What about the viscosity (323.15 K, 3340 kPa) of the same molecule?
A: 0.431 ± 0.01 mPa·s

Q: And the mass density (323.15 K, 6340 kPa)?
A: 846.144 ± 1.7 kg/m3

Q: And the viscosity (323.15 K, 6340 kPa)?
A: 0.448 ± 0.01 mPa·s

Q: What about the mass density (323.15 K, 9600 kPa) of the same molecule?
A: 848.793 ± 1.7 kg/m3

Q: And the viscosity (323.15 K, 9600 kPa)?
A: 0.461 ± 0.011 mPa·s

Q: What about the mass density (323.15 K, 12750 kPa) of the same molecule?
A: 851.586 ± 1.7 kg/m3

Q: What about the viscosity (323.15 K, 12750 kPa) of the same molecule?
A: 0.464 ± 0.011 mPa·s

Q: What about the mass density (323.15 K, 14770 kPa) of the same molecule?
A: 853.276 ± 1.7 kg/m3

Q: What about the viscosity (323.15 K, 14770 kPa) of the same molecule?
A: 0.466 ± 0.011 mPa·s

Q: With `CCOC(=O)CCCCC(=O)OCC` [diethyl hexanedioate] as the molecule, how does the mass density (303.15 K, 100 kPa) read?
A: 998.842 ± 2 kg/m3

Q: What about the viscosity (303.15 K, 100 kPa) of the same molecule?
A: 2.786 ± 0.059 mPa·s

Q: And the mass density (303.15 K, 4520 kPa)?
A: 1001.81 ± 2 kg/m3

Q: And the viscosity (303.15 K, 4520 kPa)?
A: 2.909 ± 0.062 mPa·s

Q: What about the mass density (303.15 K, 9610 kPa) of the same molecule?
A: 1005.24 ± 2 kg/m3

Q: And the viscosity (303.15 K, 9610 kPa)?
A: 3.061 ± 0.065 mPa·s

Q: And the mass density (303.15 K, 14700 kPa)?
A: 1008.51 ± 2 kg/m3

Q: And the viscosity (303.15 K, 14700 kPa)?
A: 3.226 ± 0.068 mPa·s

Q: What about the mass density (303.15 K, 19790 kPa) of the same molecule?
A: 1012.52 ± 2 kg/m3

Q: And the viscosity (303.15 K, 19790 kPa)?
A: 3.343 ± 0.071 mPa·s

Q: And the mass density (313.15 K, 100 kPa)?
A: 989.86 ± 2 kg/m3

Q: What about the viscosity (313.15 K, 100 kPa) of the same molecule?
A: 2.257 ± 0.048 mPa·s

Q: And the mass density (313.15 K, 4520 kPa)?
A: 993.535 ± 2 kg/m3

Q: And the viscosity (313.15 K, 4520 kPa)?
A: 2.335 ± 0.05 mPa·s

Q: What about the mass density (313.15 K, 9630 kPa) of the same molecule?
A: 996.693 ± 2 kg/m3

Q: And the viscosity (313.15 K, 9630 kPa)?
A: 2.472 ± 0.053 mPa·s

Q: What about the mass density (313.15 K, 14750 kPa) of the same molecule?
A: 1000.42 ± 2 kg/m3

Q: And the viscosity (313.15 K, 14750 kPa)?
A: 2.589 ± 0.055 mPa·s

Q: And the mass density (313.15 K, 19890 kPa)?
A: 1003.55 ± 2 kg/m3

Q: And the viscosity (313.15 K, 19890 kPa)?
A: 2.726 ± 0.058 mPa·s

Q: What about the mass density (323.15 K, 100 kPa) of the same molecule?
A: 981.395 ± 2 kg/m3

Q: And the viscosity (323.15 K, 100 kPa)?
A: 1.846 ± 0.039 mPa·s

Q: What about the mass density (323.15 K, 4520 kPa) of the same molecule?
A: 984.72 ± 2 kg/m3

Q: What about the viscosity (323.15 K, 4520 kPa) of the same molecule?
A: 1.932 ± 0.041 mPa·s

Q: What about the mass density (323.15 K, 9600 kPa) of the same molecule?
A: 988.74 ± 2 kg/m3

Q: And the viscosity (323.15 K, 9600 kPa)?
A: 2.021 ± 0.043 mPa·s

Q: What about the mass density (323.15 K, 14690 kPa) of the same molecule?
A: 992.273 ± 2 kg/m3

Q: And the viscosity (323.15 K, 14690 kPa)?
A: 2.126 ± 0.045 mPa·s

Q: And the mass density (323.15 K, 19710 kPa)?
A: 995.581 ± 2 kg/m3

Q: And the viscosity (323.15 K, 19710 kPa)?
A: 2.23 ± 0.048 mPa·s

Q: What about the mass density (333.15 K, 100 kPa) of the same molecule?
A: 971.597 ± 2 kg/m3

Q: What about the viscosity (333.15 K, 100 kPa) of the same molecule?
A: 1.58 ± 0.034 mPa·s

Q: What about the mass density (333.15 K, 4520 kPa) of the same molecule?
A: 975.516 ± 2 kg/m3

Q: What about the viscosity (333.15 K, 4520 kPa) of the same molecule?
A: 1.642 ± 0.035 mPa·s

Q: What about the mass density (333.15 K, 9630 kPa) of the same molecule?
A: 979.685 ± 2 kg/m3

Q: And the viscosity (333.15 K, 9630 kPa)?
A: 1.716 ± 0.037 mPa·s

Q: And the mass density (333.15 K, 14710 kPa)?
A: 983.483 ± 2 kg/m3

Q: What about the viscosity (333.15 K, 14710 kPa) of the same molecule?
A: 1.802 ± 0.039 mPa·s

Q: What about the mass density (333.15 K, 19710 kPa) of the same molecule?
A: 987.107 ± 2 kg/m3

Q: What about the viscosity (333.15 K, 19710 kPa) of the same molecule?
A: 1.886 ± 0.04 mPa·s

Q: What about the mass density (343.15 K, 100 kPa) of the same molecule?
A: 962.622 ± 1.9 kg/m3

Q: What about the viscosity (343.15 K, 100 kPa) of the same molecule?
A: 1.35 ± 0.029 mPa·s

Q: And the mass density (343.15 K, 4510 kPa)?
A: 966.544 ± 2 kg/m3

Q: And the viscosity (343.15 K, 4510 kPa)?
A: 1.407 ± 0.03 mPa·s

Q: What about the mass density (343.15 K, 9600 kPa) of the same molecule?
A: 970.932 ± 2 kg/m3

Q: What about the viscosity (343.15 K, 9600 kPa) of the same molecule?
A: 1.471 ± 0.032 mPa·s

Q: And the mass density (343.15 K, 14700 kPa)?
A: 975.031 ± 2 kg/m3

Q: And the viscosity (343.15 K, 14700 kPa)?
A: 1.542 ± 0.033 mPa·s

Q: And the mass density (343.15 K, 19700 kPa)?
A: 978.932 ± 2 kg/m3

Q: What about the viscosity (343.15 K, 19700 kPa) of the same molecule?
A: 1.608 ± 0.035 mPa·s

Q: What about the mass density (353.15 K, 100 kPa) of the same molecule?
A: 953.224 ± 1.9 kg/m3

Q: What about the viscosity (353.15 K, 100 kPa) of the same molecule?
A: 1.179 ± 0.026 mPa·s

Q: And the mass density (353.15 K, 4520 kPa)?
A: 957.353 ± 1.9 kg/m3

Q: What about the viscosity (353.15 K, 4520 kPa) of the same molecule?
A: 1.227 ± 0.027 mPa·s

Q: What about the mass density (353.15 K, 9620 kPa) of the same molecule?
A: 962.118 ± 1.9 kg/m3

Q: And the viscosity (353.15 K, 9620 kPa)?
A: 1.28 ± 0.028 mPa·s

Q: And the mass density (353.15 K, 14710 kPa)?
A: 966.479 ± 2 kg/m3

Q: What about the viscosity (353.15 K, 14710 kPa) of the same molecule?
A: 1.338 ± 0.029 mPa·s

Q: And the mass density (353.15 K, 19680 kPa)?
A: 970.392 ± 2 kg/m3

Q: What about the viscosity (353.15 K, 19680 kPa) of the same molecule?
A: 1.402 ± 0.03 mPa·s

Q: What about the mass density (363.15 K, 100 kPa) of the same molecule?
A: 943.203 ± 1.9 kg/m3

Q: What about the viscosity (363.15 K, 100 kPa) of the same molecule?
A: 1.041 ± 0.023 mPa·s

Q: What about the mass density (363.15 K, 4520 kPa) of the same molecule?
A: 948.203 ± 1.9 kg/m3

Q: And the viscosity (363.15 K, 4520 kPa)?
A: 1.078 ± 0.023 mPa·s

Q: And the mass density (363.15 K, 9610 kPa)?
A: 953.106 ± 1.9 kg/m3

Q: What about the viscosity (363.15 K, 9610 kPa) of the same molecule?
A: 1.129 ± 0.025 mPa·s

Q: And the mass density (363.15 K, 14700 kPa)?
A: 957.919 ± 1.9 kg/m3

Q: What about the viscosity (363.15 K, 14700 kPa) of the same molecule?
A: 1.174 ± 0.025 mPa·s

Q: What about the mass density (363.15 K, 19710 kPa) of the same molecule?
A: 962.125 ± 1.9 kg/m3

Q: What about the viscosity (363.15 K, 19710 kPa) of the same molecule?
A: 1.226 ± 0.027 mPa·s

Q: And the mass density (373.15 K, 100 kPa)?
A: 934.753 ± 1.9 kg/m3

Q: What about the viscosity (373.15 K, 100 kPa) of the same molecule?
A: 0.914 ± 0.02 mPa·s

Q: What about the mass density (373.15 K, 4520 kPa) of the same molecule?
A: 939.138 ± 1.9 kg/m3

Q: And the viscosity (373.15 K, 4520 kPa)?
A: 0.956 ± 0.021 mPa·s

Q: What about the mass density (373.15 K, 9620 kPa) of the same molecule?
A: 944.359 ± 1.9 kg/m3

Q: What about the viscosity (373.15 K, 9620 kPa) of the same molecule?
A: 1 ± 0.022 mPa·s

Q: What about the mass density (373.15 K, 14680 kPa) of the same molecule?
A: 948.986 ± 1.9 kg/m3

Q: What about the viscosity (373.15 K, 14680 kPa) of the same molecule?
A: 1.046 ± 0.023 mPa·s

Q: What about the mass density (373.15 K, 19910 kPa) of the same molecule?
A: 953.741 ± 1.9 kg/m3

Q: And the viscosity (373.15 K, 19910 kPa)?
A: 1.096 ± 0.024 mPa·s
